pIC50: −log10 of the molar value.
Experiments:
[1] = system: HIF2α reporter cells (786-O-HIF2α-Luc cells); test: Luciferase Assay (HIF2α reporter cells); format: cell-based; conditions: 18-20 h, Steady-Glo luminescence
Description: Luciferase LUC gene was transfected into 786-O cells (purchased from ATCC) using Lipofectamine 3000 Transfection Reagent (purchased from Invitrogen) to construct HIF2α reporter cells (786-O-HIF2α-Luc cells). Experiments were performed when 786-O-HIF2α-Luc cells were in logarithmic growth phase, culture medium (RPMI MEDIUM 1640, purchased from Invitrogen) was abandoned, the cells were rinsed with PBS three times; trypsin (TrypLE, purchased from invitrogen) was added to digest cells, the digestion was terminated by washing the cells with culture medium, 10% fetal bovine serum, 1% penicillin and streptomycin. The cells were collected by centrifugation, rinsed twice with PBS to remove the phenol red in the medium, and then resuspended the cells to an appropriate concentration, and detected the cell density and viability, and made sure the cell viability is above 90% before it can be used for experiments.
The gradient concentration compound was transferred into 384-well plate, 25 nl/well using Echo 550 (non-contact sonic pipetting system, purchased from Labcyte); the cells were seeded in 384-well plate, 4500 cells/well, with 25 μl of culture medium, to make the final concentrations as follows: 10000, 3333, 1111, 370, 123, 41.1, 13.7, 4.6, 1.5, 0.5 nM. Cells were incubated at 37° C., 5% CO2 for 18-20 h; Steady-Glo™ Luciferase Assay System (purchased from Promega) was added to 384 well-plate, 25 μl/well; the luminescence value was detected with Envision. The % inhibition rate was calculated according to the RLU (Record Luminescence) signal value of each well, and then the IC50 of the corresponding compound was calculated by Graphpad 8.0.

VEGFA (786-O cells) = test: VEGFA ELISA Assay (IC50); format: cell-based; conditions: VEGFA in culture supernatant by ELISA
Description: 786-O cells in exponential growth phase were seeded in 96-well plate, the cell concentration was 65,000 cells per milliliter of culture medium, 180 ul per well. Compounds were serial diluted to the indicated concentration, and 20 ul compound solutions of different concentrations were added to the corresponding cell wells. The final compound concentrations were as follows (nM): 1.5, 4.6, 13.7, 41.2, 123.5, 370.4, 1111.1, 3333.3, 10000. After 24 hours of incubation, the cell culture supernatant was taken, and the VEGFA concentration was determined using an ELISA kit (purchased from abcam). Finally, the reaction was terminated, and the light absorbance value of each well was measured using a microplate reader at a wavelength of […], and IC50 was calculated by GraphPad Prism. Cell Titer-Glo reagent was used to measure cell viability.

[2] = Homo sapiens, 786-0, 24 h, 24 hours incubation, numeric values
[3] = Homo sapiens, 786-0, 24 h, 24 hours incubation, class symbols

Structure (SMILES) | pIC50 ([1]; numeric values) | pIC50 (VEGFA (786-O cells); [2]) | pIC50 ([1]; class symbols) | pIC50 (VEGFA (786-O cells); [3]) | other results
O[C@H]1c2c(C(F)(F)F)cn(-c3ccc(F)c(C(F)F)c3)c2CC[C@H]1F (single isomer, unassigned) [Example 104] | 7.66 | 8.21 | – | – | –
N#Cc1cc(-n2cc(C(F)(F)F)c3c2CCC(F)(F)[C@H]3F)ccc1F (single isomer, unassigned) [Example 196] | – | – | ≥ 6.30 | ≥ 6.30 | –
OC1c2c(C(F)(F)F)cn(-c3cc(F)cc(Cl)c3)c2CCC1(F)F (stereo not drawn) [Example 7, 1-(3-chloro-5-fluorophenyl)-5,5-difluoro-3-(trifluoromethyl)-4,5,6,7-tetrahydro-1H-indol-4-ol] | 7.24 | 7.51 | – | – | –
N#Cc1cc(F)cc(-n2cc(C(F)(F)F)c3c2CCC(F)(F)C3O)c1 (stereo not drawn) [Example 12, 3-(5,5-difluoro-4-hydroxy-3-(trifluoromethyl)-4,5,6,7-tetrahydro-1H-indol-1-yl)-5-fluorobenzonitrile] | – | 7.17 | ≥ 6.30 | – | –
OC1c2c(C(F)(F)F)cn(-c3cccc(Cl)c3)c2CCC1(F)F (stereo not drawn) [Example 15, l-(3-chlorophenyl)-5,5-difluoro-3-(trifluoromethyl)-4,5,6,7-tetrahydro-1H-indol-4-ol] | – | 7.73 | ≥ 6.30 | – | –
N#Cc1cccc(-n2cc(C(F)(F)F)c3c2CCC(F)(F)C3O)c1 (stereo not drawn) [Example 19, 3-(5,5-difluoro-4-hydroxy-3-(trifluoromethyl)-4,5,6,7-tetrahydro-1H-indol-1-yl)benzonitrile] | – | – | ≥ 6.30 | ≥ 6.30 | –
OC1c2c(C(F)(F)F)cn(-c3cc(Cl)cc(Cl)c3)c2CCC1(F)F (stereo not drawn) [Example 20, 1-(3,5-dichlorophenyl)-5,5-difluoro-3-(trifluoromethyl)-4,5,6,7-tetrahydro-1H-indol-4-ol] | – | – | ≥ 6.30 | ≥ 6.30 | –
OC1CCCc2c1c(C(F)(F)F)cn2-c1cc(F)cc(F)c1 (stereo not drawn) [Example 37, 1-(3,5-difluorophenyl)-3-(trifluoromethyl)-4,5,6,7-tetrahydro-1H-indol-4-ol] | – | – | ≥ 6.30 | ≥ 6.30 | –
O[C@H]1c2c(-c3cccs3)cn(-c3cc(F)cc(Cl)c3)c2CCC1(F)F [Example 48, (S)-1-(3-chloro-5-fluorophenyl)-5,5-difluoro-3-(thiophen-2-yl)-4,5,6,7-tetrahydro-1H-indol-4-ol] | – | 7.34 | ≥ 6.30 | – | –
O[C@H]1c2c(C(F)(F)F)cn(-c3cc(F)cc(F)c3)c2CCC1(F)F [Example 64, (S)-1-(3,5-difluorophenyl)-5,5-difluoro-3-(trifluoromethyl)-4,5,6,7-tetrahydro-1H-indol-4-ol] | – | – | ≥ 6.30 | ≥ 6.30 | –
N#Cc1cc(-c2cc(C(F)(F)F)c3n2CCC(F)(F)C3O)ccc1F (stereo not drawn) [Example 69, 5-(7,7-difluoro-8-hydroxyl-1-(trifluoromethyl)-5,6,7,8-tetrahydroindolizin-3-yl)-2-fluorobenzonitrile] | 7.17 | 7.35 | – | – | –
N#Cc1cc(-c2cc(C(F)(F)F)c3n2CCC(F)(F)[C@H]3O)ccc1F [Example 70, (S)-5-(7,7-difluoro-8-hydroxyl-1-(trifluoromethyl)-5,6,7,8-tetrahydroindolizin-3-yl)-2-fluorobenzonitrile] | 7.07 | 7.34 | – | – | –
N#Cc1cc(-c2cc(C(F)(F)F)c3n2CCC(F)C3O)ccc1F (stereo not drawn) [Example 75, 2-fluoro-5-(7-fluoro-8-hydroxy-1-(trifluoromethyl)-5,6,7,8-tetrahydroindolizin-3-yl)benzonitrile] | – | – | ≥ 6.30 | ≥ 6.30 | –
N#Cc1cc(-n2cc(C(F)(F)F)c3c2CCC(F)(F)[C@H]3O)ccc1F [Example 95] | 7.42 | – | – | – | pIC50 (VEGFA (786-O cells); 24 hours incubation, numeric values): 7.84
OC1c2c(C(F)(F)F)c(F)n(-c3cc(F)cc(Cl)c3)c2CCC1(F)F (stereo not drawn) [Example 106, 1-(3-chloro-5-fluorophenyl)-2,5,5-trifluoro-3-(trifluoromethyl)-4,5,6,7-tetrahydro-1H-indol-4-ol] | – | – | ≥ 6.30 | ≥ 6.30 | –
O[C@H]1c2c(C(F)(F)F)cn(-c3cc(F)cc(Cl)c3)c2CCC1(F)F [Example 116, (S)-1-(3-chloro-5-fluorophenyl)-5,5-difluoro-3-(trifluoromethyl)-4,5,6,7-tetrahydro-1H-indol-4-ol] | 7.27 | 7.56 | – | – | –

Structure (SMILES) | pIC50 ([1]; numeric values) | pIC50 (VEGFA (786-O cells); [2]) | pIC50 ([1]; class symbols) | pIC50 (VEGFA (786-O cells); [3]) | other results
OC1c2c(C(F)(F)F)cn(-c3ccc(F)c(Cl)c3)c2CCC1(F)F (stereo not drawn) [Example 120, 1-(3-chloro-4-fluorophenyl)-5,5-difluoro-3-(trifluoromethyl)-4,5,6,7-tetrahydro-1H-indol-4-ol] | 7.12 | 7.41 | – | – | –
N#Cc1cc(-n2cc(C(F)(F)F)c3c2CCC(F)(F)C3O)ccc1F (stereo not drawn) [Example 121] | 7.01 | 7.51 | – | – | –
N#Cc1ccc(-n2cc(C(F)(F)F)c3c2CCC(F)(F)C3O)cc1Cl (stereo not drawn) [Example 124, 2-chloro-4-(5,5-difluoro-4-hydroxy-3-(trifluoromethyl)-4,5,6,7-tetrahydro-1H-indol-1-yl)benzonitrile] | – | – | ≥ 6.30 | – | pIC50 (VEGFA (786-O cells); Homo sapiens, 786-0, 24 hours incubation, numeric values): 8.07
N#Cc1ccc(-n2cc(C(F)(F)F)c3c2CCC(F)(F)C3O)cc1C#N (stereo not drawn) [Example 125, 4-(5,5-difluoro-4-hydroxy-3-(trifluoromethyl)-4,5,6,7-tetrahydro-1H-indol-1-yl)phthalonitrile] | – | 7.47 | ≥ 6.30 | – | –
N#Cc1cc(-n2cc(C(F)(F)F)c3c2CCC(F)[C@H]3O)ccc1F (stereo partly drawn) [Example 131, 2-fluoro-5-((4S)-5-fluoro-4-hydroxy-3-(trifluoromethyl)-4,5,6,7-tetrahydro-1H-indol-1-yl)benzonitrile] | – | – | ≥ 6.30 | ≥ 6.30 | –
OC1c2c(C(F)(F)F)cn(-c3cc(F)c(F)c(F)c3)c2CCC1(F)F (stereo not drawn) [Example 148] | – | – | ≥ 6.30 | ≥ 6.30 | –
OC1c2c(C(F)(F)F)cn(-c3ccc(F)c(C(F)(F)F)c3)c2CCC1(F)F (stereo not drawn) [Example 156, 5,5-difluoro-1-(4-fluoro-3-(trifluoromethyl)phenyl)-3-(trifluoromethy)-4,5,6,7-tetrahydro-1H-indol-4-ol] | 7.15 | 7.81 | – | – | –
N#Cc1ccc(-n2cc(C(F)(F)F)c3c2CCC(F)(F)[C@H]3O)cc1C#N [Example 167, (S)-4-(5,5-difluoro-4-hydroxy-3-(trifluoromethyl)-4,5,6,7-tetrahydro-1H-indol-1-yl)phthalonitrile] | 7.16 | – | – | ≥ 6.30 | –
OC1c2c(C(F)(F)F)cn(-c3ccc(F)c(C(F)F)c3)c2CCC1(F)F (stereo not drawn) [Example 168, 1-(3-(difluoromethyl)-4-fluorophenyl)-5,5-difluoro-3-(trifluoromethyl)-4,5,6,7-tetrahydro-1H-indol-4-ol] | 7.52 | 8.08 | – | – | –
O[C@H]1c2c(C(F)(F)F)cn(-c3ccc(F)c(C(F)F)c3)c2CCC1(F)F [Example 173, (S)-1-(3-(difluoromethyl)-4-fluorophenyl)-5,5-difluoro-3-(trifluoromethyl)-4,5,6,7-tetrahydro-1H-indol-4-ol] | 7.80 | 7.75 | – | – | –
OC1c2c(C(F)(F)F)cn(/C=C/c3ccccc3)c2CCC1(F)F (stereo not drawn) [Example 181, (E)-5,5-difluoro-1-styryl-3-(trifluoromethyl)-4,5,6,7-tetrahydro-1H-indol-4-ol] | – | – | – | 5.00 to 5.82 | –
O=C1c2c(C(F)(F)F)cn(-c3ccc(F)c(C(F)F)c3)c2CCC1(F)F [Example 190, 1-(3-(difluoromethyl)-4-fluorophenyl)-5,5-difluoro-3-(trifluoromethyl)-1,5,6,7-tetrahydro-4H-indol-4-one] | – | – | – | 5.82 to 6.30 | –
CS(=O)(=O)c1cn(-c2cc(F)cc(C#N)c2)c2c1C(O)C(F)CC2 (stereo not drawn) [Example 193, 3-fluoro-5-(5-fluoro-4-hydroxy-3-(methylsulfonyl)-4,5,6,7-tetrahydro-1H-indol-1-yl)benzonitrile] | – | – | – | ≥ 6.30 | –
Fc1cc(Cl)cc(-n2cc(C(F)(F)F)c3c2CCc2cnoc2-3)c1 [Example 201, 6-(3-chloro-5-fluorophenyl)-8-(trifluoromethyl)-5,6-dihydro-4-H-isoxazolo[5,4-e]indole] | – | – | – | – | pIC50 (VEGFA (786-O cells); 24 hours incubation, class symbols): < 5.82
Fc1cc(Cl)cc(-n2cc(C(F)(F)F)c3c2CCc2cn[nH]c2-3)c1 [Example 202, 6-(3-chloro-5-fluorophenyl)-8-(trifluoromethyl)-1,4,5,6-tetrahydropyrrolo-[2,3-g]indazole] | – | – | – | < 5.82 | –
